Data reported in the supplement of paper PMC5908809.

Legend:
[1] = tested on: normal NK cells expanded with K562-aAPC; assay: drug sensitivity score (DSS) (DSS units); higher = more sensitive; extreme values may be limits of the assay; conditions: 72 h; IL-2 2.5 ng/mL
Protocol: (§1)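 Drug sensitivity and resistance testing on K562-aAPC-expanded normal NK cells: 5 concentrations (10-fold steps over a 10,000-fold range), 72 h at 37 °C, viability by CellTiter-Glo normalised to DMSO and benzethonium chloride controls; DSS from the fitted curve.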

[2] = tested on: YT (IL-2 2.5 ng/mL); assay: percent inhibition of viability; higher = more inhibition; conditions: 72 h
[3] = tested on: KHYG-1 (IL-2 2.5 ng/mL); assay: as above; conditions: 72 h
[4] = tested on: normal primary NK cells, pool 2 (3 donors) (IL-2 2.5 ng/mL); assay: as above; conditions: 72 h
[5] = tested on: NK-YS (IL-2 2.5 ng/mL); assay: as above; conditions: 72 h
[6] = tested on: normal primary NK cells, pool 1 (3 donors), resting (IL-2 0 ng/mL); assay: as above; conditions: 72 h
[7] = tested on: normal primary NK cells, pool 3 (3 donors) (IL-2 2.5 ng/mL); assay: as above; conditions: 72 h
[8] = tested on: KAI3 (IL-2 2.5 ng/mL); assay: as above; conditions: 72 h
[9] = tested on: NK-92 (IL-2 2.5 ng/mL); assay: as above; conditions: 72 h
[10] = tested on: DERL-7 (IL-2 2.5 ng/mL); assay: as above; conditions: 72 h
[11] = tested on: NKL (IL-2 2.5 ng/mL); assay: as above; conditions: 72 h
[12] = tested on: normal primary NK cells, pool 1 (3 donors) (IL-2 2.5 ng/mL); assay: as above; conditions: 72 h
[13] = tested on: IMC-1 (IL-2 20 ng/mL); assay: as above; conditions: 72 h
[14] = tested on: SNK-6 (IL-2 2.5 ng/mL); assay: as above; conditions: 72 h
[15] = tested on: YT (IL-2 2.5 ng/mL); assay: drug sensitivity score (DSS) (DSS units); higher = more sensitive; extreme values may be limits of the assay; conditions: 72 h
[16] = tested on: KHYG-1 (IL-2 2.5 ng/mL); assay: as above; conditions: 72 h
[17] = tested on: normal primary NK cells, pool 2 (3 donors) (IL-2 2.5 ng/mL); assay: as above; conditions: 72 h
[18] = tested on: NK-YS (IL-2 2.5 ng/mL); assay: as above; conditions: 72 h
[19] = tested on: normal primary NK cells, pool 1 (3 donors), resting (IL-2 0 ng/mL); assay: as above; conditions: 72 h
[20] = tested on: normal primary NK cells, pool 3 (3 donors) (IL-2 2.5 ng/mL); assay: as above; conditions: 72 h
[21] = tested on: KAI3 (IL-2 2.5 ng/mL); assay: as above; conditions: 72 h
[22] = tested on: NK-92 (IL-2 2.5 ng/mL); assay: as above; conditions: 72 h
[23] = tested on: DERL-7 (IL-2 2.5 ng/mL); assay: as above; conditions: 72 h
[24] = tested on: NKL (IL-2 2.5 ng/mL); assay: as above; conditions: 72 h
[25] = tested on: normal primary NK cells, pool 1 (3 donors) (IL-2 2.5 ng/mL); assay: as above; conditions: 72 h
[26] = tested on: IMC-1 (IL-2 20 ng/mL); assay: as above; conditions: 72 h
[27] = tested on: SNK-6 (IL-2 2.5 ng/mL); assay: as above; conditions: 72 h
[28] = tested on: normal NK cells expanded with K562-aAPC; assay: percent inhibition of viability; higher = more inhibition; conditions: 72 h, IL-2 2.5 ng/mL
Protocol: as §1

CC1(C)CCC(c2ccc(Cl)cc2)=C(CN2CCN(c3ccc(C(=O)NS(=O)(=O)c4ccc(N[C@H](CCN5CCOCC5)CSc5ccccc5)c(S(=O)(=O)C(F)(F)F)c4)cc3)CC2)C1 [Navitoclax] (max concentration tested 10000 nM)
Conditions | drug sensitivity score
[1] | 11.7
[15] | 26.4
[16] | 26.3
[17] | 24.6
[18] | 24.8
[19] | 36.1
[20] | 19.2
[21] | 42.1
[22] | 18.6
[23] | 23
[24] | 29.4
[25] | 25.1
[26] | 9.91
[27] | 39.8

percent inhibition of viability [%]
Conditions | 1 nM | 10 nM | 100 nM | 1000 nM | 10000 nM
[2] | 2.71 | 25.2 | 69.4 | 77.4 | 87.6
[3] | -3.19 | -1.54 | 72.7 | 102 | 96.3
[4] | -16.4 | 3.46 | 56.9 | 95.9 | 99
[5] | 0.62 | 12 | 56.3 | 99.3 | 96.6
[6] | 2.54 | 48 | 98.3 | 100 | 99.9
[7] | -14.4 | -12.2 | 24.6 | 87.2 | 95.9
[8] | 19.6 | 80.7 | 102 | 104 | 97.4
[9] | -0.38 | -1.7 | 27 | 83.7 | 95.2
[10] | 2 | 1.88 | 47.8 | 93 | 100
[11] | -5.66 | 12.4 | 83.2 | 101 | 97.8
[12] | -16.8 | -9.66 | 60 | 94 | 99.9
[13] | -6.88 | -0.75 | 19.6 | 38.7 | 79.4
[14] | 16.9 | 69.7 | 99 | 99.5 | 98.8
[28] | -0.31 | -4.48 | 10.3 | 55 | 77

COc1nc(N)nc2c1ncn2[C@@H]1O[C@H](CO)[C@@H](O)[C@@H]1O [Nelarabine] (max concentration tested 10000 nM)
Conditions | drug sensitivity score
[1] | 6.13
[15] | 0
[16] | 1.02
[17] | 13.8
[18] | 0.54
[19] | 25.3
[20] | 15.7
[21] | 8.27
[22] | 2.5
[23] | 4.29
[24] | 4.79
[25] | 14.4
[26] | 0
[27] | 0

percent inhibition of viability [%]
Conditions | 1 nM | 10 nM | 100 nM | 1000 nM | 10000 nM
[2] | 2.6 | -3.18 | 0.56 | 1.65 | 5.92
[3] | 4.68 | -0.73 | -1.55 | -1.11 | 27.2
[4] | -2.48 | 5 | 21.2 | 59.8 | 82.4
[5] | 2.42 | -3.62 | 0.15 | 3.98 | 14.6
[6] | 14.4 | 22.7 | 58.9 | 88.3 | 91.7
[7] | 11.4 | 8.39 | 27.7 | 65.5 | 82.3
[8] | 15.6 | 16.4 | 12.6 | 25.8 | 53.3
[9] | 8.71 | -6.85 | 4.79 | 8.69 | 32
[10] | 1.44 | 7.77 | 2.31 | 12.4 | 46.1
[11] | 5.77 | 8.18 | 3.83 | 10.4 | 56.7
[12] | -10.4 | -4.07 | 23.9 | 61.1 | 92.1
[13] | -3.75 | -1.52 | -5.24 | -11.7 | -10.4
[14] | 2.48 | -13.9 | -9.19 | -25.6 | -2.36
[28] | 0.53 | 1.13 | 1.94 | 15.5 | 66.8
